{"source": "ChEMBL document CHEMBL1133757", "about": "“Reporter affinity labels: an o-phthalaldehyde derivative of beta-naltrexamine as a fluorogenic ligand for opioid receptors” (J Med Chem, 2000)", "key": {"[1]": {"molecular_target": "Kappa-type opioid receptor (Homo sapiens, UniProt P41145)", "sequence (P41145 whole entry)": "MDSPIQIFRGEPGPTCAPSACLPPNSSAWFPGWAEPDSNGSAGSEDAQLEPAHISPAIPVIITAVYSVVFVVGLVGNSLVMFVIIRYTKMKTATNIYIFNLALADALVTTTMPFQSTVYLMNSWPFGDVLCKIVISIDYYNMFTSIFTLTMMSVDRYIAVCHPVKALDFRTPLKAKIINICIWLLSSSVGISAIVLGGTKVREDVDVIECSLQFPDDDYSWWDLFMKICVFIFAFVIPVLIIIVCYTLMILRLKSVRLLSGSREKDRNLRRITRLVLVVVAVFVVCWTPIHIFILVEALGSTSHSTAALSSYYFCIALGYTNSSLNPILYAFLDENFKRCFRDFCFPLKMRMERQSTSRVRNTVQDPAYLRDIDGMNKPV", "experiment": "Inhibition of [3H]diprenorphine binding to Opioid receptor kappa 1"}, "[2]": {"molecular_target": "Delta-type opioid receptor (Homo sapiens, UniProt P41143)", "sequence (P41143 whole entry)": "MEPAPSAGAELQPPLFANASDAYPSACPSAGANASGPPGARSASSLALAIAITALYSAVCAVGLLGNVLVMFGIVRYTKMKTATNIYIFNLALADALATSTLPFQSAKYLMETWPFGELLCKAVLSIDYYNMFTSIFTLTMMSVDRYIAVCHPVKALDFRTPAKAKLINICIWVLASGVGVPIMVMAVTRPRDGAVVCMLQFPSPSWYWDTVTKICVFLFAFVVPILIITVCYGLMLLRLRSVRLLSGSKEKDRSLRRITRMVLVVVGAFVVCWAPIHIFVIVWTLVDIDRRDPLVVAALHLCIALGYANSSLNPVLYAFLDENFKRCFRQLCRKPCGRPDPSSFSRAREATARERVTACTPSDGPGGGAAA", "experiment": "Inhibition of [3H]- diprenorphine binding to Opioid receptor delta 1"}, "Mu-type opioid receptor": {"molecular_target": "Mu-type opioid receptor (Homo sapiens, UniProt P35372)", "sequence (P35372 whole entry)": "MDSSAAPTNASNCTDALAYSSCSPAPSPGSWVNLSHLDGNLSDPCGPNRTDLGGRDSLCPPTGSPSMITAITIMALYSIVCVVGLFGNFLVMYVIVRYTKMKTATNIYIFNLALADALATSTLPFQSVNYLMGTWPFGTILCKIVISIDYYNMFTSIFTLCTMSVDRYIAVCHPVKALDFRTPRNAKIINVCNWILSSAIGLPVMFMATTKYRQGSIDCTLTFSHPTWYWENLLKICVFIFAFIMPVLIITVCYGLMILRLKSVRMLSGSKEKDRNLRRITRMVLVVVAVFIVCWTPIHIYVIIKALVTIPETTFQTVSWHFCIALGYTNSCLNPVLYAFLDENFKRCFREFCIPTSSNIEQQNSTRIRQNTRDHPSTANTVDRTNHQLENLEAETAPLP", "experiment": "Inhibition of [3H]- diprenorphine binding to Opioid receptor mu 1 (83 fmol/mg protein) stably expressed in membranes from CHO cells", "format": "cell membranes"}}, "data": [{"compound": "O=Cc1ccc(C(=O)NCC(=O)N[C@@H]2CC[C@@]3(O)[C@H]4Cc5ccc(O)c6c5C3(CCN4CC3CC3)C2O6)cc1C=O", "note": "(stereo partly drawn)", "values": [{"measurement": "Ki", "setting": "[1]", "result": 0.7, "unit": "nM"}, {"measurement": "Ki", "setting": "[2]", "result": 2.57, "unit": "nM"}, {"measurement": "Ki", "setting": "Mu-type opioid receptor", "result": 0.45, "unit": "nM"}]}]}
